For three compounds, inhibition results are on record in ChEMBL document CHEMBL3792292, “Development of a potent and selective FLT3 kinase inhibitor by systematic expansion of a non-selective fragment-screening hit” (Bioorg Med Chem Lett, 2016).

Experiment [1] addresses Tyrosine-protein kinase ABL1 (Homo sapiens) (UniProt P00519). Put plainly: Inhibition of full length human N-terminal His-tagged ABL (2 to 1130 residues) expressed in baculovirus expression system using fluorescence labelled ABLtide as substrate at 50 times IC50 by electrophoretic mobility shift assay relative to control.
In experiment [2] the target is Insulin-like growth factor 1 receptor (Homo sapiens) (UniProt P08069). Description: Inhibition of human N-terminal GST-tagged IGF1R cytoplasmic domain (959 to 1367 residues) expressed in baculovirus expression system using fluorescence labelled IRS1 as substrate at 50 times IC50 by electrophoretic mobility shift assay relative to control.
Experiment [3] deals with T1, Tyrosine-protein kinase ITK/TSK (Homo sapiens) (UniProt Q08881).
T1 sequence (whole entry): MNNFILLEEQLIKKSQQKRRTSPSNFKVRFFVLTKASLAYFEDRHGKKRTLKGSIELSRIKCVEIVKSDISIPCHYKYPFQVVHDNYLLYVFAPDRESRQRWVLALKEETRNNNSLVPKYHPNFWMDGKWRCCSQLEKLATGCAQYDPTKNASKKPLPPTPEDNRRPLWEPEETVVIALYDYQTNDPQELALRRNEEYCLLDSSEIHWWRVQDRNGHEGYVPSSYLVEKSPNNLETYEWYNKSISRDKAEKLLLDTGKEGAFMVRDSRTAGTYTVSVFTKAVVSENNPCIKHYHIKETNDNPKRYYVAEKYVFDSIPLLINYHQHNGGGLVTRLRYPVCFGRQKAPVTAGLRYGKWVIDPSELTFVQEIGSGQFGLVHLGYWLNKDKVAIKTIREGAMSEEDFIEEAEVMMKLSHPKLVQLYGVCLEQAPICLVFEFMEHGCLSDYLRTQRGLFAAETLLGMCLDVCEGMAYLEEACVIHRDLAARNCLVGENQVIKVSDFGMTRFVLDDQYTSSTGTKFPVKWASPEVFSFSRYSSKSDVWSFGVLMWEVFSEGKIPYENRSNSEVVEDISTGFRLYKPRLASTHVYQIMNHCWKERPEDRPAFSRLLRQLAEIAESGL
Put plainly: Inhibition of full length human N-terminal GST-tagged ITK (2 to 620 residues) expressed in baculovirus expression system using fluorescence labelled srctide as substrate at 50 times IC50 by electrophoretic mobility shift assay relative to control.

Experiment [4] addresses High affinity nerve growth factor receptor (Homo sapiens, UniProt P04629). Put plainly: Inhibition of human N-terminal GST-tagged TRKA cytoplasmic domain (436 to 790 residues) expressed in baculovirus expression system using fluorescence labelled CSKtide as substrate at 50 times IC50 by electrophoretic mobility shift assay relative to control.
The target in experiment [5] is T2, Serine/threonine-protein kinase Nek2 (Homo sapiens) (UniProt P51955).
T2 sequence (whole entry): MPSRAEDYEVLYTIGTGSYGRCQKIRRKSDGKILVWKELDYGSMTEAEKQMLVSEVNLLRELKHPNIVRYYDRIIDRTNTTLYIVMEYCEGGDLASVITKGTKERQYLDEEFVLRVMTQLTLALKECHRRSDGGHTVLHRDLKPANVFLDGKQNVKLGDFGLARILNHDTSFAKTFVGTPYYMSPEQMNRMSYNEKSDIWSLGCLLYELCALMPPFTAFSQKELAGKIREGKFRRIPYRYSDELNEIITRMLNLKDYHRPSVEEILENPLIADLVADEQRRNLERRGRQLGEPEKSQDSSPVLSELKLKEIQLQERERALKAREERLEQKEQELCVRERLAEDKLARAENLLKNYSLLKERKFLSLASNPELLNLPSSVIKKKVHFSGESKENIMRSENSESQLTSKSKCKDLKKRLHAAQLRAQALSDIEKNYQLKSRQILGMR
Description: Inhibition of full length human N-terminal His-tagged NEK2 (1 to 445 residues) expressed in baculovirus expression system using fluorescence labelled CDK7 peptide substrate at 50 times IC50 by electrophoretic mobility shift assay relative to control.

The target in experiment [6] is T3, Serine/threonine-protein kinase Sgk1 (Homo sapiens) (UniProt O00141).
T3 sequence (whole entry): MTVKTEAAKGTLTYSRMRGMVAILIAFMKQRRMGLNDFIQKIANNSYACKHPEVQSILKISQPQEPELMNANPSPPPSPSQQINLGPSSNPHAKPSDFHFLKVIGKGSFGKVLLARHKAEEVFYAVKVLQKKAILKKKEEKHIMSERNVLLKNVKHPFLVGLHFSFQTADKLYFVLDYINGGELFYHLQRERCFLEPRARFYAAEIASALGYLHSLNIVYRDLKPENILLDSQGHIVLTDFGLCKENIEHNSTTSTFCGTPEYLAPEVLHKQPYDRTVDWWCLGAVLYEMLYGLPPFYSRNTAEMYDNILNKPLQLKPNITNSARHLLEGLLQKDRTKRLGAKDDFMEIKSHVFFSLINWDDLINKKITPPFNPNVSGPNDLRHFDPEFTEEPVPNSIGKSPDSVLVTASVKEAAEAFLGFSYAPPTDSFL
Description: Inhibition of human N-terminal GST-tagged SGK (61 to 431 residues) expressed in baculovirus expression system coexpressing His-tagged PDK1 (1 to 556 residues) using fluorescence labelled SGKtide as substrate at 50 times IC50 by electrophoretic mobility shift assay relative to control.

Tyrosine-protein kinase ABL1 (Homo sapiens), sequence (P00519 whole entry, the tested form may be a part): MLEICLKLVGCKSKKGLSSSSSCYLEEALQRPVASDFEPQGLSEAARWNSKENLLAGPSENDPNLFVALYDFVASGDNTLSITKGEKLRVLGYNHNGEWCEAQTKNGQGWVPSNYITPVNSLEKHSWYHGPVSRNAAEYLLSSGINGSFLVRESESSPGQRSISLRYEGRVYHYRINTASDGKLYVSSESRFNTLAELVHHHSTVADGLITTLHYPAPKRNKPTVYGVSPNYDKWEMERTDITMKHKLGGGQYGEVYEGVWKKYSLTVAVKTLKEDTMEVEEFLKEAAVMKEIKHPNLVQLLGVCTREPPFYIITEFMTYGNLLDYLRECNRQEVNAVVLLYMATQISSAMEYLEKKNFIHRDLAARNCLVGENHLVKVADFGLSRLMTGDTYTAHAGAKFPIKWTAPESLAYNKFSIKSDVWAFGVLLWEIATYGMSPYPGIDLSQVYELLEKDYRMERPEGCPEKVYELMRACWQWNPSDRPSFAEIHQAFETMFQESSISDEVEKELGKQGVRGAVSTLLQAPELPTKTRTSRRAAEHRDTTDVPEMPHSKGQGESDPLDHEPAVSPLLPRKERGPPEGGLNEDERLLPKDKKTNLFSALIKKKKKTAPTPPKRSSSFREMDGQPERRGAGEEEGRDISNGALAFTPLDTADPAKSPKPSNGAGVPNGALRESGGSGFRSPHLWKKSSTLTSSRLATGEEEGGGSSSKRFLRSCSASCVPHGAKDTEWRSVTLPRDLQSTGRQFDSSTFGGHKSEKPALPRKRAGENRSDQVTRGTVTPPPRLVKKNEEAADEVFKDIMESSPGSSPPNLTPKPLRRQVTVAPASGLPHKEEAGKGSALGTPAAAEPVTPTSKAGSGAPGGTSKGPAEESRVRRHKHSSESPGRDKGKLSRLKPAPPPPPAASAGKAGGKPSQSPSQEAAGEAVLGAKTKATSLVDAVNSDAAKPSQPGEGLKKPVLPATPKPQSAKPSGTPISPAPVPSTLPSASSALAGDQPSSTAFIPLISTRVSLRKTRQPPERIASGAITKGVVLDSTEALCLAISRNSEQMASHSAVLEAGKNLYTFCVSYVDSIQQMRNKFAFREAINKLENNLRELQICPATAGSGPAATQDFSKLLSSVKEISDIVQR
High affinity nerve growth factor receptor, sequence (P04629 33-796 limits assumed): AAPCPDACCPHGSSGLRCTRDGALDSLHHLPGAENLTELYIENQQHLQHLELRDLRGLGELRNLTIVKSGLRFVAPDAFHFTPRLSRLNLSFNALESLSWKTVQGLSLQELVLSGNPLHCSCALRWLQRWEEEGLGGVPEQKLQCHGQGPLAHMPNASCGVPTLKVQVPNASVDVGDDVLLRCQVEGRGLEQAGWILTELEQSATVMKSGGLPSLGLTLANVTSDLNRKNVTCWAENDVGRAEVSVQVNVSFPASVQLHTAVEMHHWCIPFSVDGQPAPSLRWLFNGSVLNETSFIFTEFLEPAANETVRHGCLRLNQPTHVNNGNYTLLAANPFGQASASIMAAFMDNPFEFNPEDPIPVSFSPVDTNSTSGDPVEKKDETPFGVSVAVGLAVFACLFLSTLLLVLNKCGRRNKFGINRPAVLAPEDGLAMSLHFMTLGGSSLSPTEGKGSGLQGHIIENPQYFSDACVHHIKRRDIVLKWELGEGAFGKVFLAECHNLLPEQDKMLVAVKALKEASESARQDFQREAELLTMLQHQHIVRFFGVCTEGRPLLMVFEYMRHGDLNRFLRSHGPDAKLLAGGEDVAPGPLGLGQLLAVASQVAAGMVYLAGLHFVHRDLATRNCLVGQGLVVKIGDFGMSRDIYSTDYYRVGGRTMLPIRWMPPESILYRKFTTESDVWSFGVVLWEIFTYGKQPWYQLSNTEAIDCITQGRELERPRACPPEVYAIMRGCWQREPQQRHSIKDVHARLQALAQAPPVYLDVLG
Insulin-like growth factor 1 receptor (Homo sapiens), sequence (P08069 31-736 limits assumed): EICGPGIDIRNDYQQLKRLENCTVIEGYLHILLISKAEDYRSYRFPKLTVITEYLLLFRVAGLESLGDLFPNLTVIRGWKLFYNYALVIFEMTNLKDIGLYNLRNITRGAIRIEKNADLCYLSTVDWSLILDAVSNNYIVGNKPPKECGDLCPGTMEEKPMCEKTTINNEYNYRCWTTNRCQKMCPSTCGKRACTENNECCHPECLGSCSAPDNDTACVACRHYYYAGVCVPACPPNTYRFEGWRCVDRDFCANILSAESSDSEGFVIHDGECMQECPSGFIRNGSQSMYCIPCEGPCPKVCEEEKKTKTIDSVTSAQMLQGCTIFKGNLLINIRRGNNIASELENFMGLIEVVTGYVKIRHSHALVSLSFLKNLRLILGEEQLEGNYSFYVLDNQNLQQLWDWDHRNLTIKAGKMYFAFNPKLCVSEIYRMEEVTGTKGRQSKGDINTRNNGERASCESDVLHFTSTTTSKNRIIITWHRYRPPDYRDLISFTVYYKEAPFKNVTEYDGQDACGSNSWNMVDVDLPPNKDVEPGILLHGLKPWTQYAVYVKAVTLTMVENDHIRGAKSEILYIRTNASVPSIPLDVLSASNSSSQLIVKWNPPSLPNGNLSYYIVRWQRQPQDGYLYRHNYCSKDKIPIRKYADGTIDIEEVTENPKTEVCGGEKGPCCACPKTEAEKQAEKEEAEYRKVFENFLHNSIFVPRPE
Insulin-like growth factor 1 receptor (Homo sapiens), sequence (P08069 741-1367 limits assumed): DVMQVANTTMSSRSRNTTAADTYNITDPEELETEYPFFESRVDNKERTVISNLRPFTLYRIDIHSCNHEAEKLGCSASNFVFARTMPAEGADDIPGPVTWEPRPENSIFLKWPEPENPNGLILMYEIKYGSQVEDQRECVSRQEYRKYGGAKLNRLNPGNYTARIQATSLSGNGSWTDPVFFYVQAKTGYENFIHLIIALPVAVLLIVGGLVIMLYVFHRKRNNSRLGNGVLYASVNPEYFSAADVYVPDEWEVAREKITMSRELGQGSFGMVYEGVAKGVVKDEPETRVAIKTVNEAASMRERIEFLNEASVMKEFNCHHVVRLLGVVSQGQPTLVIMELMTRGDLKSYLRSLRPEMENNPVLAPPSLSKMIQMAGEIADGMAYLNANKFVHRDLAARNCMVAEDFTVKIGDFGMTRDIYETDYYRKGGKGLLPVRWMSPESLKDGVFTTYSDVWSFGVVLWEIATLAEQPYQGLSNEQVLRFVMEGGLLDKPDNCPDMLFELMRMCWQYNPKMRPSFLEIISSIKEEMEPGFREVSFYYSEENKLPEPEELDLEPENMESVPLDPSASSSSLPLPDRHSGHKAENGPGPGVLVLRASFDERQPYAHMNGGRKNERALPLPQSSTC

Take `O=C(Nc1ccccc1)c1n[nH]c2ccccc12`: the inhibition turned out to be 5.3% in experiment [1]; 18.2% in experiment [2]; 79.7% in experiment [3]; 95% in experiment [4]; 2.3% in experiment [5]; 42.4% in experiment [6].
In the case of `O=C(Nc1ccc(C(=O)N2CCN(c3ccccc3)CC2)cc1)c1n[nH]c2ccccc12`, the inhibition in experiment [1] came out at 3.9%; in experiment [2] it was 1.9%; in experiment [3] it was 50.8%; in experiment [4], 90.1%; in experiment [5], 0.2%; in experiment [6] it was 26.3%.
On to `O=C(Nc1ccc(CN2CCN(c3ccccc3)CC2)cc1)c1n[nH]c2ccccc12`, for which the inhibition is 3.4% in experiment [1]; 0.5% in experiment [2]; 37.4% in experiment [3]; 80.5% in experiment [4]; -2.3% in experiment [5]; 11.9% in experiment [6].
